Legend:
Glucose oxidase = Glucose oxidase (Aspergillus niger, UniProt P13006); experiment: Glucose oxidase activity under gas; format: biochemical; conditions: for effect on glucose oxidase: FIG. 28; for effect: minus = inhibition, dependent upon temperature and substrate concentration
Method: (§1) Solution preparation: Optimized w/v solutions are prepared by diluting the enzyme (units/ml) and the substrate (μg/ml) in appropriate buffer (optimized pH and molarity for enzymes). The solutions are used for gas experiments at once to avoid loss of activity. Various enzyme and substrate concentrations and inhibitors may be employed. Physical parameters are varied as required.
(§2) Preparation of samples: Cuvets are filled with 2 ml of substrate solution by means of a gas-tight syringe. Gas-tight serum vials are filled with enzyme and solvent. Sufficient gas is consecutively bubbled in the cuvets and serum vials, with a 1-hr wait between injections to maximize equilibration of gas. All syringes and dead spaces are purged before filling with the appropriate gas. The amount of gas used has been measured sufficient to saturate the solution required.
(§3) Spectrophotometric time-drive, reaction rate, and kinetic analyses: cuvets and serum vials are saturated with gas 40 minutes before the run. A gas-filled syringe is used to retrieve 0.5 ml of enzyme solution to avoid air contact. The 0.5 ml syringe injections of enzyme are made simultaneously to effect a common starting time to for the samples. 7 gases (air, O2, N2, Ne, Ar, Kr, Xe) are run at various temperatures each (from 0° to 60° ). Changes in the rate or final equilibrium of the reaction versus ambient air are recorded. Comparison is also made with added oxygen, and with deoxygenation. Some samples are also prepared under pressure.

[1] = target: Gamma-glutamyl transpeptidase (Homo sapiens, UniProt P19440); experiment: Gamma-glutamyl transpeptidase activity under gas; format: biochemical; conditions: for effect on α-glutamyltranspeptidase: FIG. 29; for effect: minus = inhibition
Sequence of Gamma-glutamyl transpeptidase (P19440 1-380 limits assumed): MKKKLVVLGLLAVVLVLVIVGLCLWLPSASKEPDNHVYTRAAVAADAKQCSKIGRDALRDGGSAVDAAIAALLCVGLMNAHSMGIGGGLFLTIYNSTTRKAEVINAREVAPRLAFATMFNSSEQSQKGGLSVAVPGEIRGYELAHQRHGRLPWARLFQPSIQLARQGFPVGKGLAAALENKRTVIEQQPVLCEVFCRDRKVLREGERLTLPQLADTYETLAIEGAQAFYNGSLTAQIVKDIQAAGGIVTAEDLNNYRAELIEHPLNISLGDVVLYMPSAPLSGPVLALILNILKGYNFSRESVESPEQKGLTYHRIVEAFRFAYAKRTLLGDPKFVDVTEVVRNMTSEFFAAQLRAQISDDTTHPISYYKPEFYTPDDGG
Method: as §1, §2, §3
(§4) In a complete experiment, an enzyme at optimal pH and buffering salt concentration is reacted with 5 substrate concentrations in solution with noble gas at 1 atm. […] Controls are also run after evacuation of solution by vacuum. The reaction is monitored colorimetrically in a scanning spectrophotometer in real time, and the signals are treated mathematically to obtain rate and yield differences. Sample numbers are constant and sufficient to ensure significance of results. All parameters are independently controlled and measured, and more complex experiments are occasionally carried out.

Beta-D-glucosidase = Beta-D-glucosidase activity under gas; format: biochemical; conditions: for effect: plus = enhancement
Method: as §1, §2, §3, §4

[2] = target: Triosephosphate isomerase (Homo sapiens, UniProt P60174); experiment: Triosephosphate isomerase activity under gas; format: biochemical
Sequence of Triosephosphate isomerase (P60174 2-249 limits assumed, species assumed): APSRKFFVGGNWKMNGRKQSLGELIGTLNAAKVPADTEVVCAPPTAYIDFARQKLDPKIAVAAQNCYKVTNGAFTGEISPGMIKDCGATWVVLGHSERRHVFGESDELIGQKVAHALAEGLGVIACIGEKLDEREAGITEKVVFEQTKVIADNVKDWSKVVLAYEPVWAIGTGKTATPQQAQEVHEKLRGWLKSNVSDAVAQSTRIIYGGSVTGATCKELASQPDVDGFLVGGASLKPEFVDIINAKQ
Method: as §1, §2, §3, §4

Tyrosinase = experiment: High pressure experiments, tyrosinase; format: biochemical, Mushroom; conditions: for % inhibition of gases relative to 1 atmosphere of air: value before the slash (not pressurized)
Method: Shake the enzyme in each cylinder for several minutes and then remove a 5 ml sample for Control B and Control C. Remove cylinders to the dock, gassing with the appropriate gas; bring pressure slowly up to 30.6 atm. Let sit at the required pressure for 60 minutes. Slowly depressurize to 2 psi before bringing into the lab. Bring the cylinders back to the dock and repressurize to 100 atm with the appropriate gas. Let sit at the required pressure for 60 minutes. Slowly depressurize to 2 psi before bringing into the lab. […] Shake the enzyme in each cylinder for several minutes and then remove a 5 ml sample for Control B and Control C. Remove cylinders to the dock, gassing with the appropriate gas. Remove headspace/residual gas by pressurizing and depressurizing the gas cylinder several times. Bring pressure slowly up to 30.6 atm. Let sit at the required pressure for 60 minutes. Slowly depressurize to 40 psi before bringing into the lab. Enzyme injection: […] The cylinders were pressurized as described above. The cylinder pressure was released and the cylinders repressurized 10 times to remove O2 from the cylinders. Final Pressurization: […] Cylinder 3 was pressurized to 1 atm with Xe then pressurized to 30.6 atm with N2 to conserve Xe. Time Table: […] Due to the fact that on 4/25/91 the spectrophotometers were being used at 5° C. for a different experiment the decision was made to sample the cylinders at the end of the day when the spectrophotometer was available to be put at 25° C. Sampling took place 28 hours after pressurization. A spectro/gas run was immediately preformed on these samples. Apr. 25, 1991 Repressurization: Cylinders were repressurized at 6:00 pm on 4/25/91 to 100 atm. These cylinders will be sampled at 2:00 pm Apr. 26, 1991 (20 hrs after pressurization). Cuvettes were filled for the 2 atm experiments for both enzymes. Each cuvette was gassed 10×10 cc with the appropriate gas and refrigerated for 15 minutes prior to running. Serum vials were filled with 5 cc of the corresponding enzyme and gassed with 10×10 cc of the appropriate gas prior to running. The spectrophotometers were set up such that a continuous flow of each gas could be delivered to each spectro at all times. A 100 […] gauge was installed to read the cuvette pressure and 2 on/off valves were installed so that the reference cell could be pressurized during the second replicate. A ball valve was installed between the cylinder/house line and the gauge so that gas flow could be controlled directly at the spectrophotometers. A check valve was placed in each line to ensure that a back pressure would not cause contamination of the house lines or the gas cylinders. The cuvettes retained the 2 needles during the entire run. One of the needles was attached to the gas line while the second was used for enzyme introduction and then plugged. Due to the bulky nature of the assembly it was impossible to use the installed doors of the spectrophotometers therefore they were removed. A 4-layer thick black felt cover was prepared for each spectro to minimize the amount of light entering the system. While the cuvette was equilibrating to temperature in the spectrophotometer both needles remained in the cuvette with 10 cc syringes still attached. Prior to enzyme introduction one of the syringes was removed while the gas line was attached to the needle. A small flow of gas run through the line while this was done to ensure that there was no oxygen contamination. The needles remained above the liquid level. The second syringe was removed to allow constant flow through the cuvette. The enzyme was injected through the second needle using a 1 cc syringe. The needle was then plugged, the cuvette pressurized and the run begun. A nonpressurized gas run using all four gases was done for each enzyme. Each cuvette was gassed with 10×10 cc of the corresponding gas and refrigerated for 15 minutes. The 2 needles used for gassing the cuvettes were removed when the cuvettes were placed into the spectrophotometer. […]

[3] = 30.6 atm (24 hr), Xe = Xe 1 atm/N2 to pressure
[4] = 100 atm (~24 hr), Xe = Xe 1 atm/N2 to pressure

Sequence of Glucose oxidase (P13006 17-605): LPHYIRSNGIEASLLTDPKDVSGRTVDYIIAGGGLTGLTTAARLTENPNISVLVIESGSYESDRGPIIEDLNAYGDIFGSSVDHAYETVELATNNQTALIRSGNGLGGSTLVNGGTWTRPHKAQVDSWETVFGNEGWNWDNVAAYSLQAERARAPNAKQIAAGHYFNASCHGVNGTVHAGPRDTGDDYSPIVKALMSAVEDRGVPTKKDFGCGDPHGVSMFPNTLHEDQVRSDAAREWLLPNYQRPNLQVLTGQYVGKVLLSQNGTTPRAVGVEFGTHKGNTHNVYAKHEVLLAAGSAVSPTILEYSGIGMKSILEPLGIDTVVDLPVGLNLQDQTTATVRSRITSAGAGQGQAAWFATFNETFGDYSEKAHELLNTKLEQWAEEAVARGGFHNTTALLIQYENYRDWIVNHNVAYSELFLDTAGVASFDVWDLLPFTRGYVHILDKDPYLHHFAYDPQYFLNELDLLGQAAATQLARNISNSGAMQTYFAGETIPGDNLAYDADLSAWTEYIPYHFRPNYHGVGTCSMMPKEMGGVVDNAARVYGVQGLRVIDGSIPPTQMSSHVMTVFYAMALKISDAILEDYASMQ

| Compound | effect on glucose oxidase (Glucose oxidase) | effect (Glucose oxidase) [%] | effect on α-glutamyltranspeptidase [1] | effect [1] [%] | effect (Beta-D-glucosidase) | effect ([2]; 10° C., plus = enhancement) | effect ([2]; 25° C., inhibition) [%] | inhibition relative to 1 atmosphere after pressurization (Tyrosinase; 2 atm) [%] | % inhibition of gases relative to 1 atmosphere of air (Tyrosinase; 2 atm experiment) [%] | inhibition relative to 1 atmosphere after pressurization (Tyrosinase; 3 atm) [%] | % inhibition of gases relative to 1 atmosphere of air (Tyrosinase; 3 atm experiment) [%] | effect on tyrosinase (Tyrosinase; 30 atm. pressure, FIG. 39) | inhibition relative to 1 atmosphere after pressurization (Tyrosinase; 30.6 atm (1 hr)) [%] | inhibition relative to 1 atmosphere after pressurization (Tyrosinase; [3]) [%] | inhibition relative to 1 atmosphere after pressurization (Tyrosinase; 100 atm (1 hr)) [%] | inhibition relative to 1 atmosphere after pressurization (Tyrosinase; [4]) [%] | effect on tyrosinase (Tyrosinase; 100 atm. pressure, FIG. 40) | enhancement (Beta-D-glucosidase; with the addition of different competing substrates) | change in relative effect (Tyrosinase; effect of pressure) [%] |
| --- | --- | --- | --- | --- | --- | --- | --- | --- | --- | --- | --- | --- | --- | --- | --- | --- | --- | --- | --- |
| [Ar] [Ar, argon] | inhibition | -85.8 | inhibition | -5 | +16% | +8% | -37 | -90.4 | -76.9 | -72.1 | -55.8 |  |  |  |  |  |  |  |  |
| [Kr] [Kr, krypton] | inhibition | -92.7 | inhibition | -8 | +14% | +12% |  | -93.1 | -84.5 |  |  |  |  |  |  |  |  |  |  |
| N#N [N2, nitrogen, reference compound] | inhibition |  |  |  |  |  |  | -88.5 | -71.2 | -82.6 | -72.1 | inhibitory effect | -15.4 | -78.8 | -20.0 | -84.7 | inhibitory effect |  |  |
| [Ne] [Ne, neon] | inhibition | -61.7 |  | -3 |  | +4% |  | -84.5 | -69.0 |  |  |  |  |  |  |  |  |  |  |
| [Xe] [Xe, xenon] | inhibition | -91.6 | inhibition | -7 | +40% | +24% |  | -86.2 | -76.0 |  |  | inhibitory effect |  | -87.0 |  | -85.7 | inhibitory effect | up to 200% | 75 |

From US5462861A, “Method for improving enzyme activities with noble gases” (American Air Liquide, Chicago Research Center, priority 1993, dated 1995)
